In patent publication US9381174B2, “Composition and method for exterminating animal parasite” (Mitsui Chemicals Agro, Inc., priority 2012, dated 2016):

Each molecule was assayed on Haemaphyxalis Longicornis (assay: Dry Film Insecticidal Test for Haemaphyxalis Longicornis). Settings: 1 ml of 1 ppm acetone solution dried on 9 cm glass petri dish; young ticks; 48 hours of exposure; 25° C.; dead and anguish ticks.
Assay type: in vivo
Description: 1 ml of an acetone solution that was prepared so that the compound was included at a concentration of 1 ppm was added dropwise to a glass petri dish having a diameter of 9 cm. After the addition, the acetone was air-dried for use in the test. About 10 young ticks were added. Then the dish was covered by a plastic film and sealed with a lid. The dish was placed in a constant temperature bath that was set at a temperature of 25° C., at a humidity of 100%, and with a light:dark cycle of 16:8.
After 48 hours of the exposure, the conditions of the ticks were examined and classified into “alive”, “dead (including a moribund condition)”, and “anguish”. The death rates after 48 hours are illustrated in Table 9.
The death rates were calculated as follows: Death Rate (%)=(Number of Dead and Anguish Ticks)/Total Number of Ticks×100
`CN(CC(F)(F)F)C(=O)C(=O)N(C)c1cccc(C(=O)Nc2c(I)cc(C(F)(C(F)(F)F)C(F)(F)C(F)(F)F)cc2S(=O)(=O)C(F)(F)F)c1F` (stereo not drawn) [6-19] was tested, and the “Death Rate after 48 hours (%)” value was 100%.
With `CN(CC(F)(F)F)C(=O)C(=O)Nc1cccc(C(=O)Nc2c(Br)cc(C(F)(C(F)(F)F)C(F)(F)F)cc2Br)c1F` [Compound No. 4-66] the “Death Rate after 48 hours (%)” value was 100%.
For `CN(CC(F)(F)F)C(=O)C(=O)Nc1cccc(C(=O)Nc2c(Br)cc(C(F)(C(F)(F)F)C(F)(F)F)cc2[S+]([O-])C(F)(F)F)c1F` (stereo not drawn) [6-7], the “Death Rate after 48 hours (%)” value was 100%.
With `CN(CC(F)(F)F)C(=O)C(=O)Nc1cccc(C(=O)Nc2c(Br)cc(C(F)(C(F)(F)F)C(F)(F)F)cc2S(=O)(=O)C(F)(F)F)c1F` [6-8] the “Death Rate after 48 hours (%)” value was 100%.
For `CN(CCF)C(=O)C(=O)Nc1cccc(C(=O)Nc2c(I)cc(C(F)(C(F)(F)F)C(F)(F)F)cc2C(F)(F)F)c1F` [Compound No. 6-2, 2-fluoro-3-[N-(2-fluoroethyl)-N-methylaminoxalylamino]-N-[2-iodo-4-heptafluoroisopropyl-6-(trifluoromethyl)phenyl]benzamide], the “Death Rate after 48 hours (%)” value was 100%.
`CCN(C)C(=O)C(=O)N(C)c1cccc(C(=O)Nc2c(I)cc(C(F)(C(F)(F)F)C(F)(F)F)cc2OC(F)F)c1F` [6-14] was tested, and the “Death Rate after 48 hours (%)” value was 100%.
In the case of `CN(CC(F)(F)F)C(=O)C(=O)N(C)c1cccc(C(=O)Nc2c(Br)cc(C(F)(C(F)(F)F)C(F)(F)F)cc2OC(F)F)c1F` [6-13], the “Death Rate after 48 hours (%)” value is reported as 100%.
For `CCN(C)C(=O)C(=O)N(C)c1cccc(C(=O)Nc2c(C)cc(C(F)(C(F)(F)F)C(F)(F)C(F)(F)F)cc2OC(F)F)c1F` (stereo not drawn) [6-16], the “Death Rate after 48 hours (%)” value was 100%.
`CN(CC(F)(F)F)C(=O)C(=O)N(C)c1cccc(C(=O)Nc2c(I)cc(C(F)(C(F)(F)F)C(F)(F)F)cc2C(F)(F)F)c1F` [6-5] was tested, and the “Death Rate after 48 hours (%)” value was 100%.
For `CCN(C)C(=O)C(=O)Nc1cccc(C(=O)Nc2c(Br)cc(C(F)(C(F)(F)F)C(F)(F)F)cc2OC(F)F)c1` [Compound No. 5-15], the “Death Rate after 48 hours (%)” value was 100%.
`CN(CC(F)(F)F)C(=O)C(=O)Nc1cccc(C(=O)Nc2c(I)cc(C(F)(C(F)(F)F)C(F)(F)F)cc2SC(F)(F)F)c1F` [6-9] was tested, and the “Death Rate after 48 hours (%)” value was 100%.
In the case of `CCN(C)C(=O)C(=O)N(C)c1cccc(C(=O)Nc2c(I)cc(C(F)(C(F)(F)F)C(F)(F)C(F)(F)F)cc2OC(F)F)c1F` (stereo not drawn) [6-15], the “Death Rate after 48 hours (%)” value is reported as 100%.
`CN(CC(F)(F)F)C(=O)C(=O)Nc1cccc(C(=O)Nc2c(Br)cc(C(F)(C(F)(F)F)C(F)(F)F)cc2SC(F)(F)F)c1F` [6-6] was tested, and the “Death Rate after 48 hours (%)” value was 100%.
With `CN(CCF)C(=O)C(=O)Nc1cccc(C(=O)Nc2c(Br)cc(C(F)(C(F)(F)F)C(F)(F)F)cc2C(F)(F)F)c1F` [Compound No. 6-1, 2-fluoro-3-[N-(2-fluoroethyl)-N-methylaminoxalylamino]-N-[2-bromo-4-heptafluoroisopropyl-6-(trifluoromethyl)phenyl]benzamide] the “Death Rate after 48 hours (%)” value was 100%.
With `CN(CC(F)(F)F)C(=O)C(=O)Nc1cccc(C(=O)Nc2c(I)cc(C(F)(C(F)(F)F)C(F)(F)F)cc2[S+]([O-])C(F)(F)F)c1F` (stereo not drawn) [6-10] the “Death Rate after 48 hours (%)” value was 100%.
In the case of `CN(CC(F)(F)F)C(=O)C(=O)Nc1cccc(C(=O)Nc2c(I)cc(C(F)(C(F)(F)F)C(F)(F)F)cc2S(=O)(=O)C(F)(F)F)c1F` [6-11], the “Death Rate after 48 hours (%)” value is reported as 100%.
`CN(CC(F)(F)F)C(=O)C(=O)Nc1cccc(C(=O)Nc2c(Br)cc(C(F)(C(F)(F)F)C(F)(F)F)cc2OC(F)F)c1F` [6-12] was tested, and the “Death Rate after 48 hours (%)” value was 100%.
With `CN(CC(F)(F)F)C(=O)C(=O)Nc1cccc(C(=O)Nc2c(Cl)cc(C(F)(C(F)(F)F)C(F)(F)F)cc2C(F)(F)F)c1F` [6-3] the “Death Rate after 48 hours (%)” value was 100%.
For `CCN(C)C(=O)C(=O)N(C)c1cccc(C(=O)Nc2c(I)cc(C(F)(C(F)(F)F)C(F)(F)C(F)(F)F)cc2S(=O)(=O)C(F)(F)F)c1F` (stereo not drawn) [6-20], the “Death Rate after 48 hours (%)” value was 100%.
`CN(CC(F)(F)F)C(=O)C(=O)N(C)c1cccc(C(=O)Nc2c(I)cc(C(F)(C(F)(F)F)C(F)(F)C(F)(F)F)cc2SC(F)(F)F)c1F` (stereo not drawn) [6-18] was tested, and the “Death Rate after 48 hours (%)” value was 100%.
`CN(CC(F)(F)F)C(=O)C(=O)N(C)c1cccc(C(=O)Nc2c(Br)cc(C(F)(C(F)(F)F)C(F)(F)F)cc2C(F)(F)F)c1F` [6-4] was tested, and the “Death Rate after 48 hours (%)” value was 100%.

Each molecule was assayed on Ctenocephalides felis (assay: Insecticidal Test for Ctenocephalides felis (treated filter paper contact)). Settings: 50 μg/cm^2 on filter paper; emerged adult fleas; 72 hours of exposure; dead including moribund; in triplicate.
Assay type: in vivo
Description: 0.2 mL of an acetone solution was added dropwise to a round filter paper having a diameter of 4.0 cm that were grasped with tweezers so that each of the compounds was included in an amount of 50 μg/cm^2. After the addition, the filter paper was dried at room temperature for 24 hours for use in the test.
Three 200 mL vials were used per compound. The filter paper treated with a test agent was placed tightly into a lid of the vials so that fleas might be contacted with the paper.
About 20 emerged adult fleas were added to each of the 200 mL vials using an aspirator. Then immediately, the vial was sealed with the lid into which the filter paper that was treated with the agent was tightly placed. It was examined if the fleas that were already dead were added. In a case in which dead fleas were found, the number of the dead fleas was subtracted from the total number.
The vials were turned upside down so that the fleas were always contacted with the filter paper. After 24, 48, and 72 hours of the exposure, the conditions of the fleas were examined and classified into “alive” and “dead (including a moribund condition)” to determine the death rates (in triplicate). The death rates after 72 hours are illustrated in Table 8.
The death rates were calculated as follows: Death Rate (%)=(Number of Dead Fleas including Moribund Fleas)/Total Number of Fleas×100
With `CN(CCF)C(=O)C(=O)Nc1cccc(C(=O)Nc2c(I)cc(C(F)(C(F)(F)F)C(F)(F)F)cc2C(F)(F)F)c1F` [Compound No. 6-2, 2-fluoro-3-[N-(2-fluoroethyl)-N-methylaminoxalylamino]-N-[2-iodo-4-heptafluoroisopropyl-6-(trifluoromethyl)phenyl]benzamide] the “Death Rate after 72 hours (%)” value was 100%.
`CCN(C)C(=O)C(=O)Nc1cccc(C(=O)Nc2c(Br)cc(C(F)(C(F)(F)F)C(F)(F)F)cc2OC(F)F)c1` [Compound No. 5-15] was tested, and the “Death Rate after 72 hours (%)” value was 80.0%.
For `CN(CCF)C(=O)C(=O)Nc1cccc(C(=O)Nc2c(Br)cc(C(F)(C(F)(F)F)C(F)(F)F)cc2C(F)(F)F)c1F` [Compound No. 6-1, 2-fluoro-3-[N-(2-fluoroethyl)-N-methylaminoxalylamino]-N-[2-bromo-4-heptafluoroisopropyl-6-(trifluoromethyl)phenyl]benzamide], the “Death Rate after 72 hours (%)” value was 100%.
